Source: ChEMBL document CHEMBL1201862, “PubChem BioAssay data set” (2004)
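Test compounds were applied to cells in 96-well plates for 48 hours at 5 doses. GI50 is the concentration that inhibits growth by half.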 The source made the active and inactive calls. No stated cut-off is given here; in the data, active = GI50 up to about 1.1 µM and inactive = higher.

Key:
Assay in all cases: inhibition of tumour cell growth, NCI panel, 48 h
[1] = test system: CAKI-1
[2] = test system: OVCAR-8
[3] = test system: CCRF-CEM
[4] = test system: HOP-18
[5] = test system: Malme-3M
[6] = test system: TK-10
[7] = test system: RXF 393
[8] = test system: SNB-19
[9] = test system: A498
[10] = test system: NCI-H23
[11] = test system: SK-OV-3
[12] = test system: SK-MEL-28
[13] = test system: A549
[14] = test system: HOP-62
[15] = test system: DMS-273
[16] = test system: UO-31
[17] = test system: 786-0
[18] = test system: SF-539
[19] = test system: DMS-114
[20] = test system: OVCAR-4
[21] = test system: UACC-257
[22] = test system: DLD-1
[23] = test system: U-251
[24] = test system: SK-MEL-2
[25] = test system: SN12C
[26] = test system: NCI-H460
[27] = test system: IGROV-1
[28] = test system: KM12
[29] = test system: SF-295
[30] = test system: MOLT-4
[31] = test system: LXFL 529
[32] = test system: ACHN
[33] = test system: SR
[34] = test system: SK-MEL-5
[35] = test system: XF498
[36] = test system: HT-29
[37] = test system: UACC-62
[38] = test system: OVCAR-5
[39] = test system: RXF 631
[40] = test system: LOX IMVI
[41] = test system: K562
[42] = test system: SF-268
[43] = test system: SW-620
[44] = test system: COLO 205
[45] = test system: M19-MEL
[46] = test system: HOP-92
[47] = test system: SNB-78
[48] = test system: EKVX
[49] = test system: NCI-H226
[50] = test system: HL-60
[51] = test system: KM-20L2
[52] = test system: HCT-116
[53] = test system: M14
[54] = test system: SNB-75
[55] = test system: HCC 2998
[56] = test system: NCI-H522
[57] = test system: HCT-15
[58] = test system: RPMI-8226
[59] = test system: OVCAR-3

## N#Cc1ccccc1Nc1ccccc1S
[1]
  GI50: > 100 µM (inactive)
[2]
  GI50: 31.6 µM (inactive)
[3]
  GI50: 6.68 µM (inactive)
[4]
  GI50: 89.7 µM (inactive)
[5]
  GI50: 20.5 µM (inactive)
[6]
  GI50: > 100 µM (inactive)
[7]
  GI50: 18.9 µM (inactive)
[8]
  GI50: 22.5 µM (inactive)
[9]
  GI50: 53.7 µM (inactive)
[10]
  GI50: 37.8 µM (inactive)
[11]
  GI50: 57.1 µM (inactive)
[12]
  GI50: 41.2 µM (inactive)
[13]
  GI50: 30.7 µM (inactive)
[14]
  GI50: 46.7 µM (inactive)
[15]
  GI50: 34.5 µM (inactive)
[16]
  GI50: 28.2 µM (inactive)
[17]
  GI50: 20.9 µM (inactive)
[18]
  GI50: 17.7 µM (inactive)
[19]
  GI50: 21.8 µM (inactive)
[20]
  GI50: 37.9 µM (inactive)
[21]
  GI50: 57.3 µM (inactive)
[22]
  GI50: 35.6 µM (inactive)
[23]
  GI50: > 10 µM (inactive)
[24]
  GI50: 56.4 µM (inactive)
[25]
  GI50: 31 µM (inactive)
[26]
  GI50: 35.2 µM (inactive)
[27]
  GI50: 26.9 µM (inactive)
[28]
  GI50: 38.2 µM (inactive)
[29]
  GI50: 23.9 µM (inactive)
[30]
  GI50: 5.4 µM (inactive)
[31]
  GI50: 22.5 µM (inactive)
[32]
  GI50: 51.1 µM (inactive)
[33]
  GI50: 19.3 µM (inactive)
[34]
  GI50: 17.9 µM (inactive)
[35]
  GI50: 18 µM (inactive)
[36]
  GI50: 57.8 µM (inactive)
[37]
  GI50: 19.1 µM (inactive)
[38]
  GI50: 29.4 µM (inactive)
[39]
  GI50: 37.8 µM (inactive)
[40]
  GI50: 17.5 µM (inactive)
[41]
  GI50: 26 µM (inactive)
[42]
  GI50: 31.3 µM (inactive)
[43]
  GI50: 22.1 µM (inactive)
[44]
  GI50: > 100 µM (inactive)
[45]
  GI50: 39.4 µM (inactive)
[46]
  GI50: 35.1 µM (inactive)
[47]
  GI50: 37.6 µM (inactive)
[48]
  GI50: 57.7 µM (inactive)
[49]
  GI50: 22.4 µM (inactive)
[50]
  GI50: 25.3 µM (inactive)

## COC1CCC(OC)C(C2(C3CC(OC)CCC3OC)OC(=O)c3ccccc32)C1 (stereo not given)
[1]
  GI50: > 100 µM (inactive)
[2]
  GI50: > 100 µM (inactive)
[51]
  GI50: 44.2 µM (inactive)
[4]
  GI50: > 100 µM (inactive)
[5]
  GI50: > 100 µM (inactive)
[6]
  GI50: > 100 µM (inactive)
[7]
  GI50: > 100 µM (inactive)
[8]
  GI50: > 100 µM (inactive)
[52]
  GI50: > 100 µM (inactive)
[53]
  GI50: 64.7 µM (inactive)
[9]
  GI50: > 100 µM (inactive)
[10]
  GI50: 80.7 µM (inactive)
[11]
  GI50: > 100 µM (inactive)
[13]
  GI50: > 100 µM (inactive)
[14]
  GI50: > 100 µM (inactive)
[54]
  GI50: > 100 µM (inactive)
[15]
  GI50: 22.6 µM (inactive)
[16]
  GI50: 70.3 µM (inactive)
[17]
  GI50: > 100 µM (inactive)
[18]
  GI50: > 100 µM (inactive)
[19]
  GI50: 55.7 µM (inactive)
[20]
  GI50: 70.8 µM (inactive)
[21]
  GI50: > 100 µM (inactive)
[22]
  GI50: > 100 µM (inactive)
[23]
  GI50: 93.8 µM (inactive)
[24]
  GI50: 93.8 µM (inactive)
[25]
  GI50: > 100 µM (inactive)
[26]
  GI50: 86.3 µM (inactive)
[27]
  GI50: 68.4 µM (inactive)
[28]
  GI50: 38.9 µM (inactive)
[29]
  GI50: 82.2 µM (inactive)
[30]
  GI50: 14.6 µM (inactive)
[32]
  GI50: > 100 µM (inactive)
[55]
  GI50: 66.4 µM (inactive)
[33]
  GI50: 9.16 µM (inactive)
[34]
  GI50: 26.4 µM (inactive)
[35]
  GI50: 76.4 µM (inactive)
[36]
  GI50: 33.8 µM (inactive)
[37]
  GI50: 94.8 µM (inactive)
[38]
  GI50: > 100 µM (inactive)
[39]
  GI50: > 100 µM (inactive)
[41]
  GI50: 22.2 µM (inactive)
[42]
  GI50: > 100 µM (inactive)
[43]
  GI50: 59.2 µM (inactive)
[56]
  GI50: 6.85 µM (inactive)
[44]
  GI50: 28.8 µM (inactive)
[57]
  GI50: 37 µM
[46]
  GI50: > 100 µM (inactive)
[47]
  GI50: > 100 µM (inactive)
[48]
  GI50: 60.8 µM (inactive)
[49]
  GI50: 86.7 µM (inactive)
[58]
  GI50: 19.8 µM (inactive)
[50]
  GI50: 13.7 µM (inactive)
[59]
  GI50: 75.9 µM (inactive)

## Cc1nsc2cc(Cl)n(C)c(=O)c12
[1]
  GI50: 40.4 µM (inactive)
[2]
  GI50: > 100 µM (inactive)
[51]
  GI50: > 100 µM (inactive)
[3]
  GI50: > 100 µM (inactive)
[5]
  GI50: > 100 µM (inactive)
[6]
  GI50: > 100 µM (inactive)
[7]
  GI50: > 100 µM (inactive)
[8]
  GI50: > 100 µM (inactive)
[52]
  GI50: > 100 µM (inactive)
[53]
  GI50: > 100 µM (inactive)
[9]
  GI50: > 100 µM (inactive)
[10]
  GI50: > 100 µM (inactive)
[11]
  GI50: > 100 µM (inactive)
[12]
  GI50: > 100 µM (inactive)
[13]
  GI50: > 100 µM (inactive)
[14]
  GI50: > 100 µM (inactive)
[54]
  GI50: 66.4 µM (inactive)
[15]
  GI50: > 100 µM (inactive)
[16]
  GI50: > 100 µM (inactive)
[17]
  GI50: > 100 µM (inactive)
[18]
  GI50: > 100 µM (inactive)
[19]
  GI50: > 100 µM (inactive)
[20]
  GI50: > 100 µM (inactive)
[21]
  GI50: > 100 µM (inactive)
[22]
  GI50: > 100 µM (inactive)
[23]
  GI50: > 100 µM (inactive)
[24]
  GI50: > 100 µM (inactive)
[25]
  GI50: > 100 µM (inactive)
[26]
  GI50: > 100 µM (inactive)
[27]
  GI50: > 100 µM (inactive)
[28]
  GI50: > 100 µM (inactive)
[30]
  GI50: > 100 µM (inactive)
[31]
  GI50: > 100 µM (inactive)
[32]
  GI50: > 100 µM (inactive)
[55]
  GI50: 0.991 µM (active)
[33]
  GI50: > 100 µM (inactive)
[34]
  GI50: > 100 µM (inactive)
[35]
  GI50: > 100 µM (inactive)
[36]
  GI50: > 100 µM (inactive)
[38]
  GI50: > 100 µM (inactive)
[39]
  GI50: > 100 µM (inactive)
[40]
  GI50: > 100 µM (inactive)
[41]
  GI50: > 100 µM (inactive)
[42]
  GI50: > 100 µM (inactive)
[43]
  GI50: > 100 µM (inactive)
[56]
  GI50: 24.8 µM (inactive)
[44]
  GI50: > 100 µM (inactive)
[57]
  GI50: > 100 µM
[45]
  GI50: > 100 µM (inactive)
[46]
  GI50: 59.7 µM (inactive)
[47]
  GI50: > 100 µM (inactive)
[48]
  GI50: 50.4 µM (inactive)
[49]
  GI50: > 100 µM (inactive)
[58]
  GI50: > 100 µM (inactive)
[50]
  GI50: > 100 µM (inactive)
[59]
  GI50: > 100 µM (inactive)
